Source: patent US6613772B1, “Substituted 2-aryl-4-amino-chinazolines, method for the production and use thereof as medicaments” (Aventis Pharma Deutschland GmbH, priority 1997, dated 2003)

How the values were obtained:
[1] = target: T1, soluble guanylate cyclase (sGC) (Bos taurus, UniProt P16068+P19687); assay: Activation of the soluble guanylate cyclase (cGMP enzyme immunoassay); type: biochemical; conditions: test substance 50 μM; sGC isolated from bovine lung; [cGMP] test substance/[cGMP] control (basal activity, solvent); 37° C., 15 to 20 minutes
T1 construct: The sGC employed had been isolated from bovine lung; from tissue; host or cells: bovine lung
T1 sequence (P19687 1-691): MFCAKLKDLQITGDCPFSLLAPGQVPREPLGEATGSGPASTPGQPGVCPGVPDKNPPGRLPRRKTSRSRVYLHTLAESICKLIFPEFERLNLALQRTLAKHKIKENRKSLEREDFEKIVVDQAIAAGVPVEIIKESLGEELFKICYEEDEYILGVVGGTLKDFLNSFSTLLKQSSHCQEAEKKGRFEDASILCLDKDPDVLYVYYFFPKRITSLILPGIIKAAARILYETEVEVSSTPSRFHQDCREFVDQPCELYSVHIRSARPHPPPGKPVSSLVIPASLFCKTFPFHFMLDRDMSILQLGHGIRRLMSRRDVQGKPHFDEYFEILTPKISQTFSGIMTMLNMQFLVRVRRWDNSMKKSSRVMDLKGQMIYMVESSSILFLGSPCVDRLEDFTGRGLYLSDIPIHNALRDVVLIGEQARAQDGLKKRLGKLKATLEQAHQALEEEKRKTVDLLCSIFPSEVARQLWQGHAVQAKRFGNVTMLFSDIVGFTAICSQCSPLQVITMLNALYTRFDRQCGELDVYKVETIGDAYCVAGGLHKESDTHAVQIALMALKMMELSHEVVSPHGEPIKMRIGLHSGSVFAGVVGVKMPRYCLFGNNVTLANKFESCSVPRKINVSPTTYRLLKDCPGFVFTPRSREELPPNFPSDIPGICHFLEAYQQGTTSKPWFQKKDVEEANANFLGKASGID
T1 sequence (P16068 1-619): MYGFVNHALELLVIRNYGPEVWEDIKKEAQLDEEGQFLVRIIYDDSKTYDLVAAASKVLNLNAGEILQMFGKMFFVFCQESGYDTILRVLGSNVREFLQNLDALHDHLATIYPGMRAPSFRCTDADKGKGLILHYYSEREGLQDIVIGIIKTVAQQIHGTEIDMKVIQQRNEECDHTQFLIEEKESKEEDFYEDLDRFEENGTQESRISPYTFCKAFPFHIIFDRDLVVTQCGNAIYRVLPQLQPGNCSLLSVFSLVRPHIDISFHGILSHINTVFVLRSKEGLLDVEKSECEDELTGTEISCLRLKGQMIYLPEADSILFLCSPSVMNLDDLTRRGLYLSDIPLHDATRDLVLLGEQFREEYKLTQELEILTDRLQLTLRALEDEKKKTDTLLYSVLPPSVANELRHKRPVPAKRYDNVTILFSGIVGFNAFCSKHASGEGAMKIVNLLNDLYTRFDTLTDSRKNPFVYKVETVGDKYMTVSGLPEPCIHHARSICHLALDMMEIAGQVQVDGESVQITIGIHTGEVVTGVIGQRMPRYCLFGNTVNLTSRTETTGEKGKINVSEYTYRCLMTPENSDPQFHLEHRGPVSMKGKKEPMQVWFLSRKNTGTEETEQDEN
Experimental: Activation of the Soluble Guanylate Cyclase
The activation of the soluble guanylate cyclase (sGC), which catalyzes the conversion of guanosine triphosphate (GTP) into cyclic guanosine monophosphate (cGMP) and pyrophosphate, by the compounds according to the invention was quantified with the aid of an enzyme immunoassay (EIA) from Amersham. For this, the test substances were first incubated with sGC in microtiter plates and then the amount of resulting cGMP was determined. The sGC employed had been isolated from bovine lung (see Methods in Enzymology, Volume 195, p. 377). The test solutions (100 μl per well) contained 50 mM triethanolamine (TEA) buffer (pH 7.5), 3 mM MgCl2, 3 mM reduced glutathione (GSH), 0.1 mM GTP, 1 mM 3-isobutyl-1-methylxanthine (IBMX), suitably diluted enzyme solution and the test substance or, in the case of the control experiments, solvent. The test substances were dissolved in dimethyl sulfoxide (DMSO) and the solution was diluted with DMSO/water such that the final concentration of test substance in the test solution was 50 μM. The DMSO concentration in the test solution was 5% (v/v). The reaction was started by addition of the sGC. The reaction mix was incubated at 37° C. for 15 to 20 minutes and then stopped by ice-cooling and addition of the stop reagent (50 mM EDTA, pH 8.0). An aliquot of 50 μl was taken and employed for the determination of the cGMP content using the acetylation protocol of the Amersham cGMP EIA kit. The absorption of the samples was measured at 450 nm (reference wavelength 620 nm) in a microtiter plate reader. The cGMP concentration was determined by means of a calibration curve which was obtained under the same experimental conditions. The activation of the sGC by a test substance is indicated as n-fold stimulation of the basal enzyme activity which was found in the control experiments (with solvent instead of test substance calculated according to the formula
n-fold stimulation=[cGMP]test substance/[cGMP]control).

Row | SMILES | n-fold Stimulation [1] | melting point
1 | COc1cc2c(N3CCN(Cc4ccccc4)CC3)nc(-c3ccc(Cl)cc3)nc2c(OC)c1OC [Example 09, 2-(4-Chlorophenyl)-4-(4-benzylpiperazino)-6,7,8-trimethoxyquinazoline] | 4 n-fold | 
2 | COc1cc2c(NCCN(C(C)C)C(C)C)nc(-c3ccc(Cl)cc3)nc2c(OC)c1OC.Cl [Example 11, 2-(4-Chlorophenyl)-4-(2-diisopropylaminoethylamino)-6,7,8-trimethoxyquinazoline Hydrochloride] | 6 n-fold | 189 °C
3 | COc1cc2c(N3CCN(CC(=O)N4CCOCC4)CC3)nc(-c3ccc(Cl)cc3)nc2c(OC)c1OC [Example 12, 2-(4-Chlorophenyl)-4-(4-(morpholinocarbonylmethyl)piperazino)-6,7,8-trimethoxyquinazoline] | 6 n-fold | 177 °C
4 | COc1cc2c(N3CCN(CCO)CC3)nc(-c3ccc(Cl)cc3)nc2c(OC)c1OC [Example 13, 2-(4-Chlorophenyl)-4-(4-(2-hydroxyethyl)piperazino)-6,7,8-trimethoxyquinazoline] | 7 n-fold | 175 °C
5 | COc1cc2c(NCCCN3CCOCC3)nc(-c3ccc(Cl)cc3)nc2c(OC)c1OC.Cl [Example 14, 2-(4-Chlorophenyl)-4-(3-morpholinopropylamino)-6,7,8-trimethoxyquinazoline Hydrochloride] | 3 n-fold | 190 °C
6 | COc1cc2nc(-c3ccc(Cl)cc3)nc(N3CCN(C)CC3)c2cc1OC.Cl [Example 17, 2-(4-Chlorophenyl)-4-(4-methylpiperazino)-6,7-dimethoxyquinazoline Hydrochloride] | 4 n-fold | 249 °C
7 | COc1cc2nc(-c3ccc(Cl)cc3)nc(NCCO)c2cc1OC [Example 20, 2-(4-Chlorophenyl)-4-(2-hydroxyethylamino)-6,7-dimethoxyquinazoline] | 5 n-fold | 236 °C
8 | COc1cc2nc(-c3ccc(Cl)cc3)nc(N3CCN(CCO)CC3)c2cc1OC [Example 23, 2-(4-Chlorophenyl)-4-(4-(2-hydroxyethyl)piperazino)-6,7-dimethoxyquinazoline] | 4 n-fold | 163 °C
9 | COc1cc2nc(-c3ccc(Cl)cc3)nc(N3CCN(CC(=O)NC(C)C)CC3)c2cc1OC [Example 24, 2-(4-Chlorophenyl)-4-(4-(isopropylaminocarbonylmethyl)piperazino)-6,7-dimethoxyquinazoline] | 3 n-fold | 187 °C
10 | COc1cc2nc(-c3ccc(Cl)cc3)nc(NCC(N)=O)c2cc1OC [Example 25, 2-(4-Chlorophenyl)-4-((aminocarbonylmethyl)amino)-6,7-dimethoxyquinazoline] | 3 n-fold | 291 °C
11 | COc1cc2nc(-c3ccc(Cl)cc3)nc(NCc3cccnc3)c2cc1OC [Example 28, 2-(4-Chlorophenyl)-4-((3-pyridylmethyl)amino)-6,7-dimethoxyquinazoline] | 5 n-fold | 232 °C
12 | COc1cc2nc(-c3ccc(Cl)cc3)nc(NCCCO)c2cc1OC [Example 32, 2-(4-Chlorophenyl)-4-(3-hydroxypropylamino)-6,7-dimethoxyquinazoline] | 5 n-fold | 187 °C
13 | COc1cc2nc(-c3ccc(Cl)cc3)nc(NCCOCCO)c2cc1OC [Example 33, 2-(4-Chlorophenyl)-4-(2-(2-hydroxyethoxy)ethylamino)-6,7-dimethoxyquinazoline] | 3 n-fold | 188 °C
14 | COc1cc2nc(-c3ccc(Cl)cc3)nc(N(C)C)c2cc1OC [Example 35, 2-(4-Chlorophenyl)-4-dimethylamino-6,7-dimethoxyquinazoline] | 5 n-fold | 148 °C
15 | COCCNc1nc(-c2ccc(Cl)cc2)nc2cc(OC)c(OC)cc12 [Example 36, 2-(4-Chlorophenyl)-4-(2-methoxyethylamino)-6,7-dimethoxyquinazoline] | 5 n-fold | 178 °C
16 | CCCN(CCC)c1nc(-c2ccc(Cl)cc2)nc2cc(OC)c(OC)cc12 [Example 81, 2-(4-Chlorophenyl)-4-dipropylamino-6,7-dimethoxyquinazoline] |  | 223 °C
17 | CCCN(CCC)c1nc(-c2cc(C(F)(F)F)cc(C(F)(F)F)c2)nc2c(OC)c(OC)c(OC)cc12 [Example 82, 2-(3,5-Bistrifluoromethylphenyl)-4-dipropylamino-6,7,8-trimethoxyquinazoline] |  | 121 °C
18 | COc1cc2nc(-c3ccc(C)cc3)nc(N3CC(C)OC(C)C3)c2cc1OC (stereo not shown) [Example 83, 2-(4-Methylphenyl)-4-(2,6-dimethylmorpholino)-6,7-dimethoxyquinazoline] |  | 177 °C
19 | COCCCNc1nc(-c2ccc(C)cc2)nc2cc(OC)c(OC)cc12 [Example 84, 2-(4-Methylphenyl)-4-(3-methoxypropylamino)-6,7-dimethoxyquinazoline] |  | 162 °C
20 | COc1cc2nc(-c3ccc(Cl)cc3)nc(N3CC(C)OC(C)C3)c2cc1OC (stereo not shown) [Example 85, 2-(4-Chlorophenyl)-4-(2,6-dimethylmorpholino)-6,7-dimethoxyquinazoline] |  | 165 °C
21 | COCCCNc1nc(-c2ccc(Cl)cc2)nc2cc(OC)c(OC)cc12 [Example 86, 2-(4-Chlorophenyl)-4-(3-methoxypropylamino)-6,7-dimethoxyquinazoline] |  | 240 °C
22 | COc1cc2nc(-c3ccc(Cl)cc3)nc(N3CCC(C(N)=O)CC3)c2cc1OC [Example 88, 2-(4-Chlorophenyl)-4-(4-aminocarbonylpiperidino)-6,7-dimethoxyquinazoline] |  | 225 °C
23 | COc1cc2nc(-c3ccc(Cl)cc3)nc(N3CCCCCC3)c2cc1OC [Example 89, 2-(4-Chlorophenyl)-4-hexamethyleneimino-6,7-dimethoxyquinazoline] |  | 189 °C
24 | COc1cc2nc(-c3ccc(Cl)cc3)nc(N3C[C@@H](C)O[C@@H](C)C3)c2cc1OC [Example 90, 2-(4-Chlorophenyl)-4-(cis-2,6-dimethylmorpholino)-6,7-dimethoxyquinazoline] |  | 223 °C
25 | COc1cc2c(N3CCC(O)CC3)nc(-c3ccc(Cl)cc3)nc2c(OC)c1OC [Example 95, 2-(4-Chlorophenyl)-4-(4-hydroxypiperidino)-6,7,8-tdmethoxyquinazoline] | 7 n-fold | 
26 | COc1cc2nc(-c3ccc(C)cc3)nc(N(C)Cc3cccnc3)c2cc1OC [Example 97, 2-(4-Methylphenyl)-4-(N-methyl-N-(3-pyridylmethyl)amino)-6,7-dimethoxyquinazoline] |  | 165 °C
